Reference: patent US20240228494A1, “COMPOUNDS” (PATHIOS THERAPEUTICS LIMITED, priority 2021, published 2024)

Each molecule was assayed against human recombinant GPR65 (Homo sapiens, UniProt Q8IYL9) (assay: Human GPR65 cAMP HTRF antagonist assay). Conditions: not given.
Chain of human recombinant GPR65 (Q8IYL9 whole entry): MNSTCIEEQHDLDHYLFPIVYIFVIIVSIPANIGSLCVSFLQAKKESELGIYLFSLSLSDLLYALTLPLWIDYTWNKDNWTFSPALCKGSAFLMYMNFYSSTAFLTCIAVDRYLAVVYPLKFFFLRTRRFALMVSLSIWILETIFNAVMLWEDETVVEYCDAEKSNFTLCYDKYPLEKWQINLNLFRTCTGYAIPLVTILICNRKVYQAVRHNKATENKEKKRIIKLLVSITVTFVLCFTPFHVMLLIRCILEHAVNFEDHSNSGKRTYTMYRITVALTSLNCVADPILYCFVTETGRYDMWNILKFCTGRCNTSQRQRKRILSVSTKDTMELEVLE
Format: cell-based
Text: In one preferred embodiment, the compound prevents the increase in cytoplasmic cAMP levels expected following GPR65 activation at acidic pH. This prevention of cAMP accumulation in turn prevents downstream signalling through ICER, as described above. The “Human GPR65 cyclic adenosine monophosphate (cAMP) Homogeneous Time Resolved Fluorescence (HTRF) antagonist assay”, or simply “cAMP assay”, as described in the accompanying examples, can be used to measure the potency of GPR65 modulators, which is expressed as the concentration of compound required to reduce the increase in cAMP concentration upon GPR65 activation by 50% (i.e. an IC50).
Human GPR65 Cyclic Adenosine Monophosphate (cAMP) Homogeneous Time Resolved Fluorescence (HTRF) Antagonist Assay Procedure
IC50 data was obtained by the following procedure:
1321N1 human astrocytoma cells stably expressing human recombinant GPR65 (1321N1-hrGPR65 cells, EuroscreenFast) were cultured according to the vendor's instructions.
Compounds were tested for their ability to antagonise GPR65, through measuring the concentration of cytoplasmic cAMP following treatment of the cells at a pH of 7.2 to activate GPR65 signalling and addition of the compound to be tested. The extent to which the expected rise in cAMP concentration upon GPR65 activation was suppressed by the added compound is indicative of its potency. The assay was carried out according to EuroscreenFast assay methodology as follows.
On the day of the assay, test compounds were added to 384-well, low volume, white microtiter plates by acoustic dispensing. KRH buffer (5 mM KCl, 1.25 mM MgSO4, 124 mM NaCl, 25 mM HEPES, 13.3 mM Glucose, 1.25 mM KH2PO4 and 1.45 mM CaCl2) was adjusted to pH 6.5, pH 7.6 and pH 8.4 by adding NaOH. 1321N1-hGPR65 cells were rapidly thawed and diluted in KRH, pH 7.6 prior to centrifugation at 300×g for 5 min and resuspension in assay buffer (KRH, pH 7.6, supplemented with 1 mM 3-isobutyl-1-methylxanthine (IBMX) and 200 μM ethylenediaminetetraacetic acid (EDTA)). Cells were added to assay plates at a density of 2,000 cells per well in a volume of 5 μl. Assay plates were briefly centrifuged at 100×g and then incubated at room temperature for 30 min. Cells were stimulated by the addition of 5 μL KRH, pH 6.5, to achieve an assay pH of 7.2, while control wells received 5 μl KRH, pH 8.4 to achieve an assay pH of 7.9. Assay plates were briefly centrifuged at 100×g and then incubated at room temperature for 30 min.
Accumulation of cAMP was detected by cAMP HTRF kit (Cisbio). d2-labeled cAMP and cryptate-labeled anti-cAMP antibody in Lysis and Detection Buffer (Cisbio) were added to assay plates, and the plates were incubated at room temperature for 1 h. HTRF measurements were performed using a Pherastar FSX instrument. Acceptor and donor emission signals were measured at 665 nm and 620 nm, respectively, and HTRF ratios were calculated as signal665 nm/signal620 nm×10^4. Data were normalised to high and low control values and fitted with 4-parameter logistic regression to determine hGPR65 IC50 values for the test compounds, which are shown in Table 1.
With `S=C(Nc1ccc(Cl)c(Cl)c1)N1C2CCC1c1cncnc1C2` (racemic) [Compound 5, (±)-N-(3,4-dichlorophenyl)-6,7,8,9-tetrahydro-5H-5,8-epiminocyclo-hepta[d]pyrimidine-10-carbothioamide] the IC50 was under 500 nM.
Work on `O=C(Oc1ccc(Cl)c(Cl)c1)N1C2CCC1c1cncnc1C2` (racemic) [Compound 10, 3,4-dichlorophenyl (±)-6,7,8,9-tetrahydro-5H-5,8-epiminocyclohepta-[d]pyrimidine-10-carboxylate] yielded an IC50 of 500 to 5000 nM.
`Fc1cc(C(F)(F)F)c(Br)cc1NC(=S)N1[C@H]2CC[C@@H]1c1ccnc(F)c1C2` [Compound 1, (5R,8S)—N-(5-Bromo-2-fluoro-4-(trifluoromethyl)phenyl)-1-fluoro-6,7,8,9-tetrahydro-5H-5,8-epiminocyclohepta[c]pyridine-10-carbothioamide] was tested, and the IC50 was under 500 nM.
With `O=c1cc2c(c[nH]1)[C@H]1CC[C@@H](C2)N1C(=S)Nc1cc(Cl)c(C(F)(F)F)cc1F` [Compound 2, (6S,9R)-N-(5-Chloro-2-fluoro-4-(trifluoromethyl)phenyl)-3-oxo-3,5,6,7,8,9-hexahydro-2H-6,9-epiminocyclohepta[c]pyridine-10-carbothioamide] the IC50 was under 500 nM.
Molecule `Fc1cc(Cl)c(Cl)cc1NC(=S)N1[C@H]2CC[C@@H]1c1ccnc(F)c1C2` [Compound 3, (5R,8S)-N-(4,5-dichloro-2-fluorophenyl)-1-fluoro-6,7,8,9-tetrahydro-5H-5,8-epiminocyclo-hepta[c]pyridine-10-carbothioamide] has an IC50 of under 500 nM.
In the case of `Fc1cc(C(F)(F)F)c(Cl)cc1NC(=S)N1[C@H]2CC[C@@H]1c1ccnc(F)c1C2` [Compound 4, (5R,8S)-N-(5-chloro-2-fluoro-4-(trifluoromethyl)phenyl)-1-fluoro-6,7,8,9-tetrahydro-5H-5,8-epiminocyclohepta[c]pyridine-10-carbothioamide], the IC50 is reported as under 500 nM.
In the case of `N#C/N=C(\Nc1ccc(Cl)c(Cl)c1)N1[C@H]2CC[C@@H]1c1ccnc(F)c1C2` [Compound 6, (5R,8S,)—N′-Cyano-N-(3,4-dichlorophenyl)-1-fluoro-6,7,8,9-tetrahydro-5H-5,8-epiminocyclohepta[c]pyridine-10-carboximidamide], the IC50 is reported as under 500 nM.
Work on `Fc1cc(Cl)c(Cl)cc1CN1[C@H]2CC[C@@H]1c1ccnc(F)c1C2` [Compound 9, (5R,8S)-10-(4,5-dichloro-2-fluorobenzyl)-1-fluoro-6,7,8,9-tetrahydro-5H-5,8-epiminocyclohepta[c]pyridine] yielded an IC50 of 500 to 5000 nM.
`N#C/N=C(/Nc1cc(C(F)(F)F)c(Cl)cc1F)N1[C@H]2CC[C@@H]1c1ccnc(F)c1C2` [Compound 11, (5R,8S)-N-(4-Chloro-2-fluoro-5-(trifluoromethyl)phenyl)-N′-cyano-1-fluoro-6,7,8,9-tetrahydro-5H-5,8-epimino-cyclohepta[c]pyridine-10-carboximidamide] was tested, and the IC50 was under 500 nM.
Molecule `N#C/N=C(/Nc1cc(Cl)c(Cl)cc1F)N1[C@H]2CC[C@@H]1c1ccnc(F)c1C2` [Compound 12, (5R,8S)-N′-cyano-N-(4,5-dichloro-2-fluorophenyl)-1-fluoro-6,7,8,9-tetrahydro-5H-5,8-epiminocyclohepta-[c]pyridine-10-carboximidamide] has an IC50 of under 500 nM.
`O=C(C(=O)N1[C@H]2CC[C@@H]1c1ccnc(F)c1C2)c1ccc(Cl)c(Cl)c1` [Compound 13, 1-(3,4-Dichlorophenyl)-2-((5R,8S)-1-fluoro-6,7,8,9-tetrahydro-5H-5,8-epiminocyclohepta[c]pyridin-10-yl)ethane-1,2-dione] showed an IC50 of 500 to 5000 nM.
`O/N=C(\Nc1cc(Cl)c(Cl)cc1F)N1[C@H]2CC[C@@H]1c1ccnc(F)c1C2` [Compound 15, (5R,8S)—N-(4,5-dichloro-2-fluorophenyl)-1-fluoro-N′-hydroxy-6,7,8,9-tetrahydro-5H-5,8-epiminocyclohepta[c]pyridine-10-carboximidamide] showed an IC50 of under 500 nM.
With `CO/N=C(\Nc1cc(Cl)c(Cl)cc1F)N1[C@H]2CC[C@@H]1c1ccnc(F)c1C2` [Compound 16, (5R,8S)—N-(4,5-dichloro-2-fluorophenyl)-1-fluoro-N′-methoxy-6,7,8,9-tetrahydro-5H-5,8-epiminocyclohepta[c]pyridine-10-carboximidamide] the IC50 was under 500 nM.

Same assay, conditions: 1321N1-hrGPR65 cells, assay pH 7.2, suppression of cAMP rise; read-out: hGPR65 IC50
For `O=C(C(O)c1ccc(Cl)c(Cl)c1)N1[C@H]2CC[C@@H]1c1ccnc(F)c1C2` (single isomer, unassigned) [Compound 7], the IC50 was over 5000 nM.
`O=C(Cc1ccc(Cl)c(Cl)c1)N1[C@H]2CC[C@@H]1c1ccnc(F)c1C2` [Compound 8, 2-(3,4-dichlorophenyl)-1-((5R,8S)-1-fluoro-6,7,8,9-tetrahydro-5H-5,8-epimino-cyclohepta[c]pyridin-10-yl)ethan-1-one] showed an IC50 of 500 to 5000 nM.
Molecule `N=C(Nc1cc(Cl)c(Cl)cc1F)N1[C@H]2CC[C@@H]1c1ccnc(F)c1C2` [Compound 17, (5R,8S)—N′-(4,5-dichloro-2-fluorophenyl)-1-fluoro-6,7,8,9-tetrahydro-5H-5,8-epiminocyclohepta[c]pyridine-10-carboximidamide] has an IC50 of over 5000 nM.
